Source: patent US10975056B2 (GlaxoSmithKline Intellectual Property Development Limited, priority 2016, dated 2021)
Read-outs that look alike come from different tables or passages of the source.

How the values were obtained:
DNMT1 = DNMT1 (Homo sapiens, UniProt P26358); test: DNMT1 biochemical activity, breaklight assay and/or SPA assay
[1] = tested on: erythroid progenitor cells (EPCs); test: Fetal hemoglobin (HbF) ELISA in day 7 erythroid progenitor cells; assay type: cell-based, human; settings: Homo sapiens, Erythroid progenitor cell, HbF ELISA, day 7 EPCs, 5 days; read-out: EPC ELISA (pEC50 category) (converted);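 note: for fetal hemoglobin induction normalized to vehicle-treated cells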
In short: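 Day 7 EPCs from human bone marrow CD34+ cells were plated at 1,000 cells/well in media with 3 U/mL rhEPO. They were exposed to a 22-point dilution ([…]) for 5 days at 37 °C. Lysate HbF was measured by sandwich ELISA (OD450) and normalized to DMSO control wells.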

[2] = binned activity in either the breaklight or the SPA assay

DNMT1, sequence (P26358 whole entry, looked up): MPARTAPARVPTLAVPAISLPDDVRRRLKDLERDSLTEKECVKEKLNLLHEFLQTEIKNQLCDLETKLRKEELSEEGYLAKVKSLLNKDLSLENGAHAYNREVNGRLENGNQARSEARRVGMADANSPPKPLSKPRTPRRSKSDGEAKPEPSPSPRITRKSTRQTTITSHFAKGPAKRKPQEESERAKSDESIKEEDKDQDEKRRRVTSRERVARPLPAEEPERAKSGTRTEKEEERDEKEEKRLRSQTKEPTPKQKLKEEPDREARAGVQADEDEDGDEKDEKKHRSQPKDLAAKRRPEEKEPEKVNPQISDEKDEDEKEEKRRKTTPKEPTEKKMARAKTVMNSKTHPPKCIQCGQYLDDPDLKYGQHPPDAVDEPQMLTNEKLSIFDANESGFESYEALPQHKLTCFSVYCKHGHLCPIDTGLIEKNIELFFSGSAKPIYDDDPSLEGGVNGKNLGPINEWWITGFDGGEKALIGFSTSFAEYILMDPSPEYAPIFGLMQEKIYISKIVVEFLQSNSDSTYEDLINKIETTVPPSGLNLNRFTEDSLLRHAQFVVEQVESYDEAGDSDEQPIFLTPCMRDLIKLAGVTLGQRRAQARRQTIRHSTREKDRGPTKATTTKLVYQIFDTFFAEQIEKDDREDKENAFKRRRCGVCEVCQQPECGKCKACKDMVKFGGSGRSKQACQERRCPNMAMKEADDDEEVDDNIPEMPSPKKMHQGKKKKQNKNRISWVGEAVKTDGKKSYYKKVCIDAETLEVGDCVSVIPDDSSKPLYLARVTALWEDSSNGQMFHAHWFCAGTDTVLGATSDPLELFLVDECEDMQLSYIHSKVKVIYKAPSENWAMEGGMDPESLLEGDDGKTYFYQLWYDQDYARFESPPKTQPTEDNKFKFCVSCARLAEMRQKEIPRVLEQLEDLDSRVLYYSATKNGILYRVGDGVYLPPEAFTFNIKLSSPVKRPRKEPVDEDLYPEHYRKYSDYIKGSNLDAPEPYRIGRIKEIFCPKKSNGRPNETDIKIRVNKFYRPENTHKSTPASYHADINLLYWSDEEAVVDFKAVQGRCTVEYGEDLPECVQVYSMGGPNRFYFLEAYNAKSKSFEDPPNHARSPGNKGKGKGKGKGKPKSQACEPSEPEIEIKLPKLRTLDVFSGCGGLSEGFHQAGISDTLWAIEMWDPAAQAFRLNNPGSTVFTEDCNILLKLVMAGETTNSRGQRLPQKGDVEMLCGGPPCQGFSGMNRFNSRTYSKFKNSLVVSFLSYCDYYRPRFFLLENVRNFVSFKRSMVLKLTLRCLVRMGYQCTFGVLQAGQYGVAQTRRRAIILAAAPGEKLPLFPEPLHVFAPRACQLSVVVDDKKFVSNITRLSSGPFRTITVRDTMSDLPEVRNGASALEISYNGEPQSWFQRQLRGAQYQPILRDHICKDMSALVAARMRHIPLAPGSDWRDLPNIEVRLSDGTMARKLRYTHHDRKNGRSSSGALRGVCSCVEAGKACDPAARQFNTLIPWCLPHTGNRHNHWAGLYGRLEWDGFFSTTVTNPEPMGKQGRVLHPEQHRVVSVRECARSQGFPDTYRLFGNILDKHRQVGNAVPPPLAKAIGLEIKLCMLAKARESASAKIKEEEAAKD

Compound | DNMT1 BioChemical (pIC50 category) (DNMT1; [2]) | EC50 [1] [µM] | average pIC50 against DNMT1 (DNMT1; breaklight assay and/or SPA assay, repeated experimental runs) | IC50 (DNMT1; breaklight assay and/or SPA assay, repeated experimental runs, read-out: average pIC50 against DNMT1 (converted)) [µM] | IC50 (DNMT1; binned activity in either the breaklight or the SPA assay, read-out: DNMT1 BioChemical (pIC50 category) (converted)) [µM]
CCc1c(C#N)c(SC(C(N)=O)c2ccccc2)nc(N(C)CC(=O)N2C[C@@H](CO)[C@H](O)C2)c1C#N (stereo partly shown) [Example 649] | D (Category D: ≥6.5) | 1 to 31.6 | > 6.5 | 0.126 | 
CCc1c(C#N)c(SCc2ccc(N(C)S(C)(=O)=O)cc2)nc(N2CC[C@H](CNC(=O)CN)C2)c1C#N [Example 650, (R)-2-amino-N-((1-(3,5-dicyano-4-ethyl-6-((4-(N-methylmethylsulfonamido)benzyl)thio)pyridin-2-yl)pyrrolidin-3-yl)methyl)acetamide] | D (Category D: ≥6.5) | 1 to 31.6 |  |  | 
CCc1c(C#N)c(SC(C(N)=O)c2ccccc2)nc(N2CCC[C@H](NCC(C)(C)C)C2)c1C#N (stereo partly drawn) [Example 651, 2-((3,5-dicyano-4-ethyl-6-((S)-3-(neopentylamino)piperidin-1-yl)pyridin-2-yl)thio)-2-phenylacetamide] | D (Category D: ≥6.5) | < 0.316 |  |  | 
CCc1c(C#N)c(SC(C(N)=O)c2ccccc2)nc(N(C)CC(=O)N2C[C@@H](O)[C@H](O)C2)c1C#N (stereo partly drawn) [Example 653, 2-((3,5-dicyano-6-((2-((3R,4R)-3,4-dihydroxypyrrolidin-1-yl)-2-oxoethyl)(methyl)amino)-4-ethylpyridin-2-yl)thio)-2-phenylacetamide] | D (Category D: ≥6.5) | 1 to 31.6 |  |  | 
CCc1c(C#N)c(S[C@@H](C(N)=O)c2ccccc2)nc(N2CC[C@@](O)(CO)C2)c1C#N [Example 654, (R)-2-((3,5-dicyano-4-ethyl-6-((S)-3-hydroxy-3-(hydroxymethyl)pyrrolidin-1-yl)pyridin-2-yl)thio)-2-phenylacetamide] | D (Category D: ≥6.5) | 1 to 31.6 |  |  | 
CCc1c(C#N)c(SC(C(N)=O)c2ccccc2)nc(N(C)CC(=O)NC(CO)CO)c1C#N (stereo not shown) [Example 658, 2-((6-((2-amino-2-oxo-1-phenylethyl)thio)-3,5-dicyano-4-ethylpyridin-2-yl)(methyl)amino)-N-(1,3-dihydroxypropan-2-yl)acetamide] | D (Category D: ≥6.5) | 1 to 31.6 |  |  | 
CCc1c(C#N)c(SC(C(N)=O)c2ccccc2)nc(N(C)CC(=O)N2C[C@H](O)C[C@H](O)C2)c1C#N (stereo partly drawn) [Example 659, 2-((3,5-dicyano-6-((2-((3R,5S)-3,5-dihydroxypiperidin-1-yl)-2-oxoethyl)(methyl)amino)-4-ethylpyridin-2-yl)thio)-2-phenylacetamide] | D (Category D: ≥6.5) | < 0.316 |  |  | 
CCc1c(C#N)c(SC(C(N)=O)c2ccccc2)nc(N(C)CC(=O)N2C[C@H](O)[C@@H](O)C2)c1C#N (stereo partly drawn) [Example 660, 2-((3,5-dicyano-6-((2-((3S,4S)-3,4-dihydroxypyrrolidin-1-yl)-2-oxoethyl)(methyl)amino)-4-ethylpyridin-2-yl)thio)-2-phenylacetamide] | D (Category D: ≥6.5) | 1 to 31.6 |  |  | 
CCc1c(C#N)c(SC(C(N)=O)c2ccccc2)nc(N2CCC(CO)(NCCO)CC2)c1C#N (stereo not shown) [Example 661, 2-((3,5-dicyano-4-ethyl-6-(4-((2-hydroxyethyl)amino)-4-(hydroxymethyl)piperidin-1-yl)pyridin-2-yl)thio)-2-phenylacetamide] | D (Category D: ≥6.5) | 1 to 31.6 |  |  | 
CCc1c(C#N)c(SC(C(N)=O)c2ccccc2)nc(N(C)CC(=O)N2CCO[C@@H](CO)C2)c1C#N (stereo partly drawn) [Example 662, 2-((3,5-dicyano-4-ethyl-6-((2-((R)-2-(hydroxymethyl)morpholino)-2-oxoethyl)(methyl)amino)pyridin-2-yl)thio)-2-phenylacetamide] | D (Category D: ≥6.5) | < 0.316 |  |  | 
CCc1c(C#N)c(SC(C(N)=O)c2ccccc2)nc(N(C)CC(=O)NOC)c1C#N (stereo not shown) [Example 663, 2-((6-((2-amino-2-oxo-1-phenylethyl)thio)-3,5-dicyano-4-ethylpyridin-2-yl)(methyl)amino)-N-methoxyacetamide] | D (Category D: ≥6.5) | < 0.316 |  |  | 
CCc1c(C#N)c(SC(C(N)=O)c2ccccc2)nc(N(C)CC(=O)N2C[C@H](CO)[C@@H](O)C2)c1C#N (stereo partly drawn) [Example 664, 2-((3,5-dicyano-4-ethyl-6-((2-((3R,4R)-3-hydroxy-4-(hydroxymethyl)pyrrolidin-1-yl)-2-oxoethyl)(methyl)amino)pyridin-2-yl)thio)-2-phenylacetamide] | D (Category D: ≥6.5) | 1 to 31.6 |  |  | 
CCc1c(C#N)c(SC(C(N)=O)c2ccccc2)nc(N(C)CC(=O)NC[C@@H](O)CO)c1C#N (stereo partly drawn) [Example 666, 2-((6-((2-amino-2-oxo-1-phenylethyl)thio)-3,5-dicyano-4-ethylpyridin-2-yl)(methyl)amino)-N-((R)-2,3-dihydroxypropyl)acetamide] | D (Category D: ≥6.5) | 1 to 31.6 |  |  | 

Second part, the compound after the results:

DNMT1 BioChemical (pIC50 category) (DNMT1; [2]) | EC50 [1] [µM] | average pIC50 against DNMT1 (DNMT1; breaklight assay and/or SPA assay, repeated experimental runs) | IC50 (DNMT1; breaklight assay and/or SPA assay, repeated experimental runs, read-out: average pIC50 against DNMT1 (converted)) [µM] | IC50 (DNMT1; binned activity in either the breaklight or the SPA assay, read-out: DNMT1 BioChemical (pIC50 category) (converted)) [µM] | Compound
D (Category D: ≥6.5) | < 0.316 |  |  |  | CCc1c(C#N)c(SC(C(N)=O)c2ccccc2)nc(N(C)CC(=O)N2CC[C@H](CO)C2)c1C#N (stereo partly drawn) [Example 648, 2-((3,5-dicyano-4-ethyl-6-((2-((S)-3-(hydroxymethyl)pyrrolidin-1-yl)-2-oxoethyl)(methyl)amino)pyridin-2-yl)thio)-2-phenylacetamide]
D (Category D: ≥6.5) | 0.316 to 1 |  |  |  | C[C@H](N)C(=O)NC1CCN(c2nc(SC(C(N)=O)c3ccccc3)c(C#N)c(C3CC3)c2C#N)CC1 (stereo partly drawn) [Example 655, (2S)-2-amino-N-(1-(6-((2-amino-2-oxo-1-phenylethyl)thio)-3,5-dicyano-4-cyclopropylpyridin-2-yl)piperidin-4-yl)propanamide]
D (Category D: ≥6.5) | 1 to 31.6 |  |  |  | N#Cc1c(SC(C(N)=O)c2ccccc2)nc(N2CCC(OCCN)CC2)c(C#N)c1C1CC1 (stereo not shown) [Example 656, 2-((6-(4-(2-aminoethoxy)piperidin-1-yl)-3,5-dicyano-4-cyclopropylpyridin-2-yl)thio)-2-phenylacetamide]
D (Category D: ≥6.5) | 1 to 31.6 |  |  |  | N#Cc1c(SC(C(N)=O)c2ccccc2)nc(N2CCC(NCCO)CC2)c(C#N)c1C1CC1 (stereo not shown) [Example 657, 2-((3,5-dicyano-4-cyclopropyl-6-(4-((2-hydroxyethyl)amino)piperidin-1-yl)pyridin-2-yl)thio)-2-phenylacetamide]
D (Category D: ≥6.5) | < 0.316 |  |  |  | CCc1c(C#N)c(SC(C(N)=O)c2ccccc2)nc(N(C)CC(=O)N(C)CCCO)c1C#N (stereo not shown) [Example 665, 2-((6-((2-amino-2-oxo-1-phenylethyl)thio)-3,5-dicyano-4-ethylpyridin-2-yl)(methyl)amino)-N-(3-hydroxypropyl)-N-methylacetamide]
 | 1 to 31.6 |  |  | < 0.316 | N#Cc1c(SC(C(N)=O)c2ccccc2)nc(N2CCC(NCC(N)=O)CC2)c(C#N)c1C1CC1 (stereo not shown) [Example 667, 2-((6-(4-((2-amino-2-oxoethyl)amino)piperidin-1-yl)-3,5-dicyano-4-cyclopropylpyridin-2-yl)thio)-2-phenylacetamide]
